Experimental data: patent USRE35862E, “Delivery systems for pharmacological agents encapsulated with proteinoids” (Emisphere Technologies, Inc., priority 1994, dated 1998)
Read-outs that look alike come from different tables or passages of the source.

Tests used:
blood glucose [1] = conditions: oral, far larger dosages per unit of body weight, unprotected, laboratory animals and humans; cited from earlier work
[2] = test system: Time to coagulation (fibrin clot); test: Activated Partial Thromboplastin Time (APTT) test, Table 6 (Example 8b); format: in vivo, rat
Protocol: Seven male white rats, each weighing approximately 600 g, are deprived of food for 12 hours before the start of the experiment. Rat #1 receives no treatment. Rat #2 receives an intravenous injection of 250 mg of heparin in one ml of distilled water. […] The effect of heparin is determined using the Activated Partial Thromboplastin Time (APTT) test. This test measures the time necessary for a sample of […] taken from the tail vein to form a fibrin clot.

coagulation time = conditions: oral, far larger doses per unit of body weight, unprotected, laboratory animals and humans; cited from earlier work
[3] = insulin in solution, even when refrigerated; cited from earlier work
blood glucose [4] = test system: blood glucose
Protocol: Diabetes mellitis is induced in rats weighing approximately 300 g by giving each a 75 mg/kg body weight intravenous injection of streptozotocin. Ten rats which are observed to show consistently high blood glucose levels, polyuria and polydipsia and must be maintained on subcutaneous injections of porcine insulin are selected for this experiment.
The remaining six diabetic rats are arbitrarily assigned to three groups of two animals. […] The animals of the second and third groups receive subcutaneous injections of 0.25 mg (6.5 I.U.) and 0.125 mg (3.25 I.U.), respectively, of porcine insulin. Blood glucose measurements are made on all animals immediately before dosing and at intervals thereafter. The animal groups are crossed over twice at one week intervals, so that all of the animals receive each of the insulin treatments.

blood glucose [5] = test: Blood glucose in normal rats, Table 2 (Example 4); format: in vivo, rat; conditions: 1 ml/500 g by gavage
Protocol: Doses of the resulting suspension, which contain no insulin within the microspheres, are referred to as "microspheres with external insulin". Dosages of the 2.5 mg/ml solution of porcine insulin alone are referred to as "raw insulin".
Twelve male white rats, each weighing approximately 500 g and havinng a normal blood glucose level, are arbitrarily assigned to two groups of three animals and a third group of six animals. The three animals of group A are administered the insulin filled microspheres by gavage and the three animals of group B are similarly administered the microspheres with external insulin. The six animals of group C similarly receive the raw insulin. All dosages are 1 ml/500 g of body weight and all animals are tested for blood glucose immediately before dosage and at intervals thereafter.

blood glucose [6] = test: Blood glucose in normal rats, Table 1 (Example 2c); format: in vivo, rat; conditions: Group Four
Protocol: The Group Two rats have between 1.5 and 1.7 ml of the suspension similarly administered. The rats of Group Three receive 1.0 ml of distilled water similarly administered. The rats of Group Four similarly receive 25.0 mg of porcine insulin in 1.0 ml of distilled water. Both before and during the experiment, all animals are permitted free access to water and their normal feed. Blood glucose levels are measured on samples drawn from the tail at specific intervals after treatment and group averages are recorded in Table 1 as milligrams of glucose per deciliter of blood (mg/dl).

bovine insulin
reduction of blood glucose levels (blood glucose [1]): no detectable reduction of blood glucose levels

heparin
Time to Coagulation in the APTT Test ([2]; 1 hr, IV 250 mg): 54 s
Time to Coagulation in the APTT Test ([2]; 2 hrs, IV 250 mg): > 300 s
Time to Coagulation in the APTT Test ([2]; Predose, IV group, 250 mg): 25 s
increase in coagulation time (coagulation time): no detectable increase in coagulation time

insulin
degradation in solution [3]: degrade within a few days

porcine insulin
% Decrease from Baseline Blood Glucose (blood glucose [4]; 0.5 hrs, 0.125 mg SC): 5%
% Decrease from Baseline Blood Glucose (blood glucose [4]; 0.5 hrs, 0.25 mg SC): 28%
% Decrease from Baseline Blood Glucose (blood glucose [4]; 1 hrs, 0.125 mg SC): 17%
% Decrease from Baseline Blood Glucose (blood glucose [4]; 1 hrs, 0.25 mg SC): 55%
% Decrease from Baseline Blood Glucose (blood glucose [4]; 1.5 hrs, 0.125 mg SC): 27%
% Decrease from Baseline Blood Glucose (blood glucose [4]; 1.5 hrs, 0.25 mg SC): 72%
% Decrease from Baseline Blood Glucose (blood glucose [4]; 2 hrs, 0.125 mg SC): 45%
% Decrease from Baseline Blood Glucose (blood glucose [4]; 2 hrs, 0.25 mg SC): 77%
% Decrease from Baseline Blood Glucose (blood glucose [4]; 3 hrs, 0.125 mg SC): 47%
% Decrease from Baseline Blood Glucose (blood glucose [4]; 3 hrs, 0.25 mg SC): 84%
% Decrease from Baseline Blood Glucose (blood glucose [4]; 4 hrs, 0.125 mg SC): 29%
% Decrease from Baseline Blood Glucose (blood glucose [4]; 4 hrs, 0.25 mg SC): 79%
% Decrease from Baseline Blood Glucose (blood glucose [4]; 6 hrs, 0.125 mg SC): 8%
% Decrease from Baseline Blood Glucose (blood glucose [4]; 6 hrs, 0.25 mg SC): 34%
% Decrease from Baseline Blood Glucose (blood glucose [4]; 8 hrs, 0.125 mg SC): -8%
% Decrease from Baseline Blood Glucose (blood glucose [4]; 8 hrs, 0.25 mg SC): 4%
% Decrease from Baseline Blood Glucose (blood glucose [4]; 12 hrs, 0.125 mg SC): -8%
% Decrease from Baseline Blood Glucose (blood glucose [4]; 12 hrs, 0.25 mg SC): 3%
% Decrease from Baseline Blood Glucose (blood glucose [4]; 24 hrs, 0.125 mg SC): -8%
% Decrease from Baseline Blood Glucose (blood glucose [4]; 24 hrs, 0.25 mg SC): -7%
% Decrease from Baseline Blood Glucose (blood glucose [4]; 48 hrs, 0.125 mg SC): -8%
% Decrease from Baseline Blood Glucose (blood glucose [4]; 48 hrs, 0.25 mg SC): -5%
Blood Glucose (blood glucose [5]; 0 hrs): 92.7 mg/dL
effect on blood glucose levels (blood glucose [5]): no significant effect
Blood Glucose (blood glucose [5]; 1 hrs): 98.2 mg/dL
Blood Glucose (blood glucose [5]; 2 hrs): 95.8 mg/dL
Blood Glucose (blood glucose [5]; 3 hrs): 86.2 mg/dL
Blood Glucose (blood glucose [5]; 4 hrs): 91 mg/dL
Blood Glucose (blood glucose [5]; 6 hrs): 89.8 mg/dL
Blood Glucose (blood glucose [5]; 8 hrs): 91 mg/dL
Blood Glucose (blood glucose [5]; 12 hrs): 92 mg/dL
Blood Glucose (blood glucose [5]; 24 hrs): 92 mg/dL
Blood Glucose (blood glucose [5]; .5 hrs): 95.5 mg/dL
reduction of blood glucose levels (blood glucose [1]): no detectable reduction of blood glucose levels
Ave. Blood Glucose (blood glucose [6]; 30 min, 25.0 mg by gavage): 120 mg/dL
Ave. Blood Glucose (blood glucose [6]; 1 hr, 25.0 mg by gavage): 120 mg/dL
Ave. Blood Glucose (blood glucose [6]; 1.5 hr, 25.0 mg by gavage): 124 mg/dL
Ave. Blood Glucose (blood glucose [6]; 2 hr, 25.0 mg by gavage): 120 mg/dL
Ave. Blood Glucose (blood glucose [6]; 3 hr, 25.0 mg by gavage): 116 mg/dL
Ave. Blood Glucose (blood glucose [6]; 4 hr, 25.0 mg by gavage): 111 mg/dL
Ave. Blood Glucose (blood glucose [6]; 6 hr, 25.0 mg by gavage): 123 mg/dL
Ave. Blood Glucose (blood glucose [6]; Predose, 25.0 mg in 1.0 ml water by gavage): 113 mg/dL
